Source: patent US20250214960A1, “COMPOUNDS HAVING ACTIVITY OF DEGRADING GSPT1 AND APPLICATION THEREOF” (SHANGHAI MEIZER PHARMACEUTICALS CO., LTD., priority 2021, published 2025)
Like-named read-outs stand apart in the source and are kept apart here.

Experiments:
Assay type in all cases: cell-based
GSPT1 protein = biological target: T1, GSPT1 protein (Homo sapiens, UniProt P15170+Q96SW2); experiment: Western blot detection of degradation activity of GSPT1 protein in Jeko-1 cells; details: JeKo-1, 24 h, read-out: GSPT1 degradation rate (%)
T1 construct: endogenous in cells; host or cells: Jeko-1
T1 sequence (P15170 whole entry): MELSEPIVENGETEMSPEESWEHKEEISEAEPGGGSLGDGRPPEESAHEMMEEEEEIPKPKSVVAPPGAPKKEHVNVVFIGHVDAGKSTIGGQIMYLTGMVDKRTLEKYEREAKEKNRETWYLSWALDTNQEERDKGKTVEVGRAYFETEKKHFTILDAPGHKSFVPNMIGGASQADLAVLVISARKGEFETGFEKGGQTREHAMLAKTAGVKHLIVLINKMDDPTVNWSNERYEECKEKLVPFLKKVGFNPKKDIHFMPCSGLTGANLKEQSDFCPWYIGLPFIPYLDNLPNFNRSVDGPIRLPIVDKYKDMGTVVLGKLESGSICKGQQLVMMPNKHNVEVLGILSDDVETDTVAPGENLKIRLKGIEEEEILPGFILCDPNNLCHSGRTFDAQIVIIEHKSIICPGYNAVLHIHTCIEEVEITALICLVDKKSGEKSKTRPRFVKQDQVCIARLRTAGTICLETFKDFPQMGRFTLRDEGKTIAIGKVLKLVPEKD
T1 sequence (Q96SW2 whole entry): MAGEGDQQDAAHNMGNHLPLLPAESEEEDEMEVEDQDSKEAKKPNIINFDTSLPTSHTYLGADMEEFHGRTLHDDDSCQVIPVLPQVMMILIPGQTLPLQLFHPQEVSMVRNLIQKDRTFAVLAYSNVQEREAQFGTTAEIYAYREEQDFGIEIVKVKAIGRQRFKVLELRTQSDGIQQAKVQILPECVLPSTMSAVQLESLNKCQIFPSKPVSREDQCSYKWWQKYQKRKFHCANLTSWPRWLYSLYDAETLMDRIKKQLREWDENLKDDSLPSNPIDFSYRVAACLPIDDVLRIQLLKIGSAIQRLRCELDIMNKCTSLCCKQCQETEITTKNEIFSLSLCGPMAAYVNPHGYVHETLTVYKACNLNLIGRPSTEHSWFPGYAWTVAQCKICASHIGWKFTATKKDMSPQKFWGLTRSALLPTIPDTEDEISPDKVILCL
T1 sequence (Q16531 whole entry partner): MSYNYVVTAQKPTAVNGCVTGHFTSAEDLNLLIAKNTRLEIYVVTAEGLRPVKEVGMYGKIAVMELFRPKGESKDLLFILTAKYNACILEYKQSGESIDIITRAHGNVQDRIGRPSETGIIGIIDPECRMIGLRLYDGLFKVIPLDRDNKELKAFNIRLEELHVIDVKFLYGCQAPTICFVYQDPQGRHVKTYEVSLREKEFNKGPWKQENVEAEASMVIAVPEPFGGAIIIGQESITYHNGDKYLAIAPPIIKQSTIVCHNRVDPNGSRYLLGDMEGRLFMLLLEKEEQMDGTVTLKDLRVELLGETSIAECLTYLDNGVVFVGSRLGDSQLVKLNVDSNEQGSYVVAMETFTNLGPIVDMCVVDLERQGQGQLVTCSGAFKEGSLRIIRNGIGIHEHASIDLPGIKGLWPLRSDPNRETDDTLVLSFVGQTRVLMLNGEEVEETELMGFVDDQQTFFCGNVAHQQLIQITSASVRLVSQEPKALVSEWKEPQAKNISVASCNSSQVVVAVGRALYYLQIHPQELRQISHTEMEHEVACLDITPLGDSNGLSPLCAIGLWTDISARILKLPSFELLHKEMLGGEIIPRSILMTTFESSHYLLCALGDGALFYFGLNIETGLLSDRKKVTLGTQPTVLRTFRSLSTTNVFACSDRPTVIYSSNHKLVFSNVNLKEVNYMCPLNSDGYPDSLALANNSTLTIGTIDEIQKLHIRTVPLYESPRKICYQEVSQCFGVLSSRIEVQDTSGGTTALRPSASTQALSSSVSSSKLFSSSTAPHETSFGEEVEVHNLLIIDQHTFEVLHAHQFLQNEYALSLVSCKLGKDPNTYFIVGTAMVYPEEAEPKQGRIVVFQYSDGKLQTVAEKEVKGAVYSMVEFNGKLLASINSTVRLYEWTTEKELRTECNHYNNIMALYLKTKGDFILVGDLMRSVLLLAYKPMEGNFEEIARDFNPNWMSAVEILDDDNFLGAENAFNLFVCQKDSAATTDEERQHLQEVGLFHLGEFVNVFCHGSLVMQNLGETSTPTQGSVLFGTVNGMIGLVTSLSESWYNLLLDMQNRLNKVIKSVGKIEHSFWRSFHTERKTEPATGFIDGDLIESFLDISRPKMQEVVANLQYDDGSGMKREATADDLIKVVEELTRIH
Description: Test Example 1: Western Blot Detection of Degradation Activity of GSPT1 Protein by the Compounds
Cell line: Jeko-1 cell line was cultured with an RPMI1640 media containing 20% fetal bovine serum in an incubator at 37° C., 5% CO2, and saturated humidity.
DMSO control group and test compound (concentration shown in the table below) were set up, after processing for 24 hours, the cells were collected, pre-cooled cell lysate was added and left on ice for 10 minutes. The total protein of the cells was extracted, and the protein concentration was measured and quantified using the BCA method. Routine gel preparation, sample loading, electrophoresis were conducted, then the membrane was transferred, and sealed, wherein the primary antibody was diluted with a blocking solution at 1:500-5000. The membrane was immersed in the diluted primary antibody and incubated overnight at 4° C. After rinsing, the secondary antibody was diluted with a sealing solution at 1:10000-20000, the membrane was immersed in the diluted secondary antibody, and incubated at room temperature for 45 minutes. After rinsing, the results were tested on ODYSSEY (Li-COR). GAPDH was used as an internal reference control.
Image J software was used to perform gray level analysis on each band and the degradation rate of GSPT1 protein by the compounds was calculated.

Jeko-1 cells = experiment: CCK8 method, inhibition of Jeko-1 cell proliferation; details: Homo sapiens; Jeko-1, 72 hours; read-out: Cellular proliferation inhibition IC50
Description: Test Example 3: CCK8 Method for Detecting Inhibition of Jeko-1 Cell Proliferation by Compound of Formula
Cell culture: The Jeko-1 cell line (human lymphoma cells) was cultured in RPMI-1640 complete medium containing […] and 1% penicillin streptomycin, and incubated in an incubator at 37° C., 5% CO2, and saturated humidity.
Cell laying: Jeko-1 cells in logarithmic growth phase was taken, centrifuged, and an appropriate amount of complete culture medium was added to obtain a single-cell suspension, a hemocytometer was used for cell counting, and a cell suspension of 1.5×10^5 cells/mL was prepared, the cells were inoculated into a 96 well culture plate at a rate of 100 μL cell suspension per well and incubated in a CO2 cell incubator for 24 hours.
CCK-8 detection: 72 hours after administration, 10% CCK-8 solution was added to each well, placed in a CO2 cell culture incubator, and incubated for 1-4 hours. The absorbance of each well was measured using a microplate reader at 450 nm.
Calculation of cellular proliferation inhibition rate:
Cellular proliferation inhibition rate (%)=[(Ac−As)/(Ac−Ab)]×100% • As: absorbance in experimental wells (including cells, culture medium, CCK-8 solution, and drug solution) • Ac: absorbance in control wells (including cells, culture medium, CCK-8 solution, without drugs) • Ab: absorbance in blank wells (including culture medium, CCK-8 solution, without cells or drugs)

HL-60 cells = experiment: CTG method, inhibition of HL-60 cell proliferation; details: Homo sapiens; HL-60, 72 hours; read-out: Cellular proliferation inhibition IC50
Description: (§1) Test Example 2: CTG Method for Detecting the Inhibitory Effect of Compounds of Formula on the Proliferation of HNT 34 or HL-60 Cells
(§2) HNT-34 or HL-60 cells were taken and cultured in RPMI1640 medium containing 20% fetal bovine serum. The cells were inoculated on a 96 well plate, with 1×10^4 cells per well, and incubated at 37° C. in a […] incubator. After adding the test compound, it was incubated for 72 hours. Then an appropriate amount of CTG reagent was added, the luminescence value was measured, and the inhibition rate was calculated.

HNT-34 cells = experiment: CTG method, inhibition of HNT-34 cell proliferation; details: HNT-34, 72 hours; read-out: Cellular proliferation inhibition IC50
Description: as §1, §2

SMILES | inhibition at 0.1 µM (GSPT1 protein; 100 nM, Jeko-1 cells, 24 hours) [%] | inhibition at 10 µM (GSPT1 protein; 10 μM, Jeko-1 cells, 24 hours) [%] | IC50 (Jeko-1 cells) [nM] | IC50 (HL-60 cells) [nM] | IC50 (HNT-34 cells) [nM] | inhibition at 0.1 µM (GSPT1 protein) [%] | inhibition at 10 µM (GSPT1 protein) [%]
CC(C)(C)OC(=O)N[C@H](C(=O)NCc1ccc2c(c1)CN(C1CCC(=O)NC1=O)C2=O)c1ccccc1 (stereo partly drawn) [Compound 4-87, Tert butyl ((1S)-2-((2-(2,6-dioxopiperidin-3-yl)-1-oxoisoindolin-5-yl)methyl)amino)-2-oxo-1-phenylethyl) carbamate] | 89 | 93 | 0.2 |  |  |  | 
CC(C)(C)OC(=O)N[C@H](C(=O)NCc1ccc2c(c1)CN(C1CCC(=O)NC1=O)C2=O)c1ccc(Cl)cc1 (stereo partly drawn) [Compound 4-150, Tert butyl ((1S)-1-(4-chlorophenyl)-2-((2-(2,6-dioxopyridin-3-yl)-1-oxoisoidoline-5-yl)methyl)amino)-2-oxoethyl) carbamate] | 90 | 99 | 3.9 | 9.2 | 6.5 |  | 
CC(C)(C)OC(=O)NC(C(=O)NCc1ccc2c(c1)CN(C1CCC(=O)NC1=O)C2=O)c1ccc(Cl)c(Cl)c1 (stereo not drawn) [Compound 4-151, Tert butyl (1-(3,4-dichlorophenyl)-2-((2-(2,6-dioxopyridin-3-yl)-1-oxoisoindoline-5-yl)methyl)amino)-2-oxoethyl) carbamate] | 77 | 95 | 1.3 | 11.6 | 7.8 |  | 
CC(C)(C)OC(=O)N[C@H](C(=O)NCc1ccc2c(c1)CN(C1CCC(=O)NC1=O)C2=O)c1ccc(F)c(Cl)c1 (stereo partly drawn) [Compound 4-152, Tert butyl (1-(3-chloro-4-fluorophenyl)-2-((2-(2,6-dioxopyridin-3-yl)-1-oxoisoindoline-5-yl)methyl)amino)-2-oxoethyl) carbamate] | 93 | 82 | 0.7 | 7.9 | 6.6 |  | 
O=C1CCC(N2Cc3cc(CNC(=O)[C@@H](NC(=O)OC4CCCC4)c4ccccc4)ccc3C2=O)C(=O)N1 (stereo partly drawn) [Compound 4-159, Cyclopentyl (1S)-2-((2-(2,6-dioxypiperidin-3-yl)-1-oxoisoindoline-5-yl)methyl)amino)-2-oxo-1-phenylethyl) carbamate] |  |  | 0.02 |  |  | 93 | 99
CC(C)C1CC[C@H](C)C[C@@H]1OC(=O)N[C@H](C(=O)NCc1ccc2c(c1)CN(C1CCC(=O)NC1=O)C2=O)c1ccccc1 (stereo partly drawn) [Compound 4-175] |  |  | 0.03 |  |  | 93 | 90
CC(C)(C)OC(=O)NC(C(=O)NCc1ccc2c(c1)CN(C1CCC(=O)NC1=O)C2=O)c1ccccc1F (stereo not drawn) [Compound 5-5, Tert butyl (2-((2-(2,6-dioxypiperidin-3-yl)-1-oxoisoidoline-5-yl)methyl)amino)-1-(2-fluorophenyl)-2-oxoethyl) carbamate] | 100 | 100 | 0.2 |  |  |  | 
CC(C)CC(CNC(=O)OC(C)(C)C)C(=O)NCc1ccc2c(c1)CN(C1CCC(=O)NC1=O)C2=O (stereo not drawn) [Compound 5-33] | 52 | 80 |  | 35.4 | 32.7 |  | 
CN(C(=O)OC1CCCC1)[C@H](C(=O)NCc1ccc2c(c1)CN(C1CCC(=O)NC1=O)C2=O)c1ccccc1 (stereo partly drawn) [Compound 5-36, Cyclopentyl ((1S)-2-((2-(2,6-dioxypiperidin-3-yl)-1-oxoisoindoline-5-yl)methyl)amino)-2-oxo-1-phenylethyl) (methyl) carbamate] |  |  | 1 |  |  | 97 | 97
CC(C)(C)OC(=O)N[C@@H](Cc1ccccc1)C(=O)NCc1ccc2c(c1)CN(C1CCC(=O)NC1=O)C2=O (stereo partly drawn) [Compound 5-37, Tert butyl ((2S)-1-(2-(2,6-dioxypiperidin-3-yl)-1-oxoisoindoline-5-yl)methyl) amino)-1-oxo-3-phenylprop-2-yl) carbamate] | 97.8 | 99.5 | 0.6 |  |  |  | 
CC(C)(C)OC(=O)NCC(C(=O)NCc1ccc2c(c1)CN(C1CCC(=O)NC1=O)C2=O)c1ccc(Cl)cc1 (stereo not drawn) [Compound 5-41, Tert butyl (2-(4-chlorophenyl)-3-((2-(2,6-dioxypiperidin-3-yl)-1-oxoisoindoline-5-yl)methyl)amino)-3-oxopropyl) carbamate] | 96.9 | 96.7 | 0.04 |  |  |  | 
CC(C)(C)OC(=O)N[C@@H](CC1CCCCC1)C(=O)NCc1ccc2c(c1)CN(C1CCC(=O)NC1=O)C2=O (stereo partly drawn) [Compound 5-46, Tert butyl ((2S)-3-cyclohexyl-1-(2-((2,6-dioxopyridin-3-yl)-1-oxoisoidoline-5-yl)methyl)amino)-1-oxopropan-2-yl) carbamate] | 90.6 | 93.6 | 0.2 | 8.3 | 3.7 |  | 
CN(C(=O)CC1CCCC1)[C@H](C(=O)NCc1ccc2c(c1)CN(C1CCC(=O)NC1=O)C2=O)c1ccccc1 (stereo partly drawn) [Compound 5-50] | 94.9 | 96.9 |  | 6.9 | 5.8 |  | 
CC(C)(C)OC(=O)N[C@H](C(=O)NCc1ccc2c(c1)CN(C1CCC(=O)NC1=O)C2=O)C1CCCCC1 (stereo partly drawn) [Compound 5-56, Tert butyl ((1S)-1-cyclohexyl-2-((2-(2,6-dioxopyridin-3-yl)-1-oxoisoidoline-5-yl)methyl)amino)-2-oxoethyl) carbamate] | 18.8 | 84.1 |  | 25.8 | 18 |  | 
CC(C)(C)OC(=O)N[C@H](C(=O)NCc1ccc2c(c1)CN(C1CCC(=O)NC1=O)C2=O)C1CCCC1 (stereo partly drawn) [Compound 5-57, Tert butyl ((1S)-1-cyclopentyl-2-((2-(2,6-dioxopyridin-3-yl)-1-oxoisoidoline-5-yl)methyl)amino)-2-oxoethyl) carbamate] | 75 | 98.1 |  | 15 | 7.5 |  | 
O=C1CCC(N2Cc3cc(CNC(=O)[C@H](CC4CCCCC4)NC(=O)CC4CCCC4)ccc3C2=O)C(=O)N1 (stereo partly drawn) [Compound 5-92, (2S)-3-cyclohexyl-2-(2-cyclopentylacetamido)-N-((2-(2,6-dioxypiperidin-3-yl)-1-oxoisoindoline-5-yl)methyl) propionamide] | 79 | 97 |  | 25.2 | 25.2 |  | 
CC(C)OC(=O)N[C@@H](CC1CCCCC1)C(=O)NCc1ccc2c(c1)CN(C1CCC(=O)NC1=O)C2=O (stereo partly drawn) [Compound 5-94, Isopropyl ((2S)-3-cyclohexyl-1-((2-(2,6-dioxypiperidin-3-yl)-1-oxoisoindolin-5-yl)methyl)amino)-1-oxopropan-2-yl) carbamate] |  |  |  | 12.8 | 7.4 | 85 | 95
CC[C@H](C)[C@@H](CC(=O)NCc1ccc2c(c1)CN(C1CCC(=O)NC1=O)C2=O)NC(=O)OC(C)(C)C (stereo partly drawn) [Compound 5-97, Tert butyl ((3R,4S)-1-((2-(2,6-dioxypiperidin-3-yl)-1-oxoisoidoline-5-yl)methyl)amino)-4-methyl-1-oxohexane-3-yl) carbamate] | 97 | 98 |  | 11 | 6.9 |  | 
